Data from patent US9446048B2, “Methods for treating leukemia and disorders mediated by CBFβ and RUNX1 proteins” (The United States of America, as represented by the …, priority 2011, dated 2016).

Tests used:
RUNX1-CBFβ binding = biological target: T1, RUNX1-CBFβ binding (Homo sapiens, UniProt Q01196+Q13951); test: AlphaScreen high-throughput screen for blocking RUNX1-CBFβ interaction; settings: HTS for RUNX1-CBFβ interaction inhibitors
T1 construct: The full length biotinylated RUNX1, histagged CBFβ and untagged CBFβ proteins were purchased; biotin (biotinylated); purchased Genecopoeia (Germantown, Md.); host or cells: wheat germ extract cell-free protein translation system
Experimental: An Amplified Luminescence Proximity Homogenous Assay (ALPHA) Screen format (PerkinElmer) was used to develop an assay for identifying compounds that affect RUNX1-CBFβ binding (see FIG. 3) optimized for high throughput screening (HTS). The full length biotinylated RUNX1, histagged CBFβ and untagged CBFβ proteins were purchased from Genecopoeia (Germantown, Md.) that were prepared in a wheat germ extract cell-free protein translation system. All three proteins were purified using an affinity column and FPLC chromatography. The assay buffer was comprised of 25 mM HEPES (pH 7.4), 110 mM KC1, 2 mM MgCl2, 10 mM NaCl, 5 mM DTT, and 0.01% Tween-20. The AlphaScreen assay platform (PerkinElmer) was applied for the measurement of interaction of Runx1 protein with the CBFb protein. The assay was developed in 384-well plate format and optimized in 1536-well plate format for high throughput screening. […] The assay plate was measured in an AlphaScreen mode using an Envision plate reader (Perkin Elmer, Waltham, Mass.). […]
Synthesized, tagged RUNX1 and CBFβ were used in the assay and a total of over 240,000 compounds at 7 concentrations each were screened with this assay. […] Confirmatory ALPHA and HTRF (homogeneous time resolved fluorescence) assays were performed to prioritize compounds for their ability to inhibit RUNX1-CBFβ interaction.

zebrafish embryos = test: Blockage of zebrafish embryonic definitive hematopoiesis (cd41-GFP / lck-GFP transgenic embryos); type: in vivo, zebrafish (Danio rerio); settings: for numbers of cd41-GFP cells in embryos: FIG. 4C, cd41-GFP transgenic embryos; for definitive hematopoiesis in zebrafish embryos: compounds added to water at 24 hours post fertilization, cd41-GFP or lck-GFP embryos
Experimental: Candidate compounds were tested in a zebrafish model to determine if they specifically block RUNX1-CBFβ interaction. RUNX1 and CBFβ are required for definitive hematopoiesis during embryogenesis, since RUNX1 and CBFβ knockout mouse embryos are devoid of definitive blood cells. Thus, inhibitors of RUNX1 and CBFβ should also be able to block definitive hematopoiesis as well. Standard protocols were used to breed and raise embryos from the cd41-GFP transgenic fish in which GFP marks hematopoietic stem cells, in addition to thrombocytes during embryogenesis, and from the lck-GFP transgenic fish in which GFP marks the T lineage cells. (See Westerfield M, ed The Zebrafish Book, A guide for the laboratory use of zebrafish (Danio rerio). Edition 3 ed. Eugene, Oreg.: University of Oregon Press; 1995; Lin et al. Analysis of thrombocyte development in CD41-GFP transgenic zebrafish. Blood. Dec. 1, 2005; 106(12):3803-3810; Bertrand et al. CD41+ cmyb+ precursors colonize the zebrafish pronephros by a novel migration route to initiate adult hematopoiesis. Development. May 2008; 135(10):1853-1862; Bertrand et al. Definitive hematopoiesis initiates through a committed erythromyeloid progenitor in the zebrafish embryo. Development. December 2007; 134(23):4147-4156; Kissa et al. Live imaging of emerging hematopoietic stem cells and early thymus colonization. Blood. Feb. 1, 2008; 111(3):1147-1156; Langenau et al. In vivo tracking of T cell development, ablation, and engraftment in transgenic zebrafish. Proc Natl Acad Sci USA. May 11, 2004; 101(19):7369-7374). Compounds were added to the water at 24 hours post fertilization and the final DMSO concentrations were less than 0.1%. The embryos were then observed, photographed, and videotaped with a Leica MZ16F dissecting scope, equipped with a Leica DC500 camera and a BioVision Vision-Mac™ video system. The numbers of GFP+ cells in each embryo were counted manually.

[1] = system: leukemia cells with CBF fusion genes; test: Selective cytotoxicity for CBF leukemia cell lines (ATPlite cellular ATP content); type: cell-based; settings: 24 hours; for killing of leukemia cells with CBF fusion genes versus without: ATP content
Experimental: FIG. 5 depicts the results of treating leukemia cells with or without CBF fusion genes with Ro5-3335. […] The cellular ATP content was measured by a luciferase based viability assay with −100% as 100% cell killing.
Cell lines including HeLa, HL-60, Kasumi-1, Kasumi-6, ME-1, RS4 and REH were obtained from American Type Culture Collection (ATCC, Manassas, Va.). Cells in suspension at a density of 100,000 cells/ml were grown in a T175 flask with 20% FBS RPMI-1640 medium except 20% FBS IMDM medium for HL-60 cell line and the medium was renewed every 2-3 days. The cells were centrifuged and resuspended in 10% FBS phenol free OPTI-MEM medium which were seeded at 500 cells/well in 5 uL in 1536-well white solid-bottom plates using a Multidrop Combi dispenser (ThermoFisher Scientific Inc., Waltham, Mass.). The assay plates were incubated at 37° C. with 5% CO2 and 95% humidity for 2 hours prior to compound addition. Subsequently, 23 nL/well compound DMSO solutions or DMSO controls were transferred to the assay plates using a Kalypsys pintool workstation (Kalypsys, San Diego, Calif.). The plates were then incubated at 37° C. with 5% CO2 and 95% humidity for 24 hours followed by an addition of 4 uL/well of ATPlite reagent (PerkinElmer). After a 20 minute incubation, the plates were measured in the luminescence mode using a ViewLux plate reader (Perkinelmer, Waltham, Mass.).

[2] = system: CBF leukemia cells (CBFB-MYH11); test: Leukemia transplantation murine model (Cbfb-MYH11 knock-in leukemia cells); type: in vivo, mouse; settings: for leukemia burden in mice: 300 mg/kg/day in transgenic dough, similar efficacy as standard chemotherapy drugs; for survival of leukemic mice, combination with cytarabine: 300 mg/kg/p.o. days 10-40 plus cytarabine days 10-15
Experimental: Compound Ro5-3335 was tested in a CBFβ-MYH11 knock-in mouse model that faithfully models human leukemia with this fusion gene. The mouse model is described in Castilla et al, Failure of embryonic hematopoiesis and lethal hemorrhages in mouse embryos heterozygous for a knocked-in leukemia gene CBFB-MYH11. Cell. 1996; 87(4):687-696; Castilla et al., The fusion gene Cbfb-MYH11 blocks myeloid differentiation and predisposes mice to acute myelomonocytic leukemia. Nat. Genet. October 1999; 23[2]:144-146. The CBFB-MYH11 fusion gene in this mouse model initiates leukemia development with high penetrance but variable latency. However, when the leukemia cells are transplanted, the recipient mice develop leukemia with very short, consistent latency and 100% penetrance.
The B6129F1/J mice were used for injection of leukemia cells developed in the Cbfb-MYH11 knock-in mice. The recipient mice were irradiated at 900 rads before the leukemia cells were given through retro-orbital vein injection, typically at around 250,000-500,000 cells/mouse. Ten days after leukemia cell injection, the mice were given the candidate compounds Ro5-3335 and Ro24-7429 in transgenic dough, at 300 mg/kg/day for up to 30 days. Cytarabine was given for 6 consecutive days starting on day 10 after transplantation, at 100 mg/kg/day IP, and doxorubicin was given for 4 consecutive days starting on day 10 after transplantation, at 3 mg/kg/day IP. The mice were followed by daily inspection and bi-weekly analysis of peripheral blood, which was collected by retro-orbital bleeding. Leukemia cells in the peripheral blood were evaluated by FACS analysis and by blood smear observation. Moribund mice were sacrificed and necropsy conducted to ascertain the diagnosis of terminal leukemia.

[3] = was reported; cited from earlier work

T1 sequence (Q01196 whole entry): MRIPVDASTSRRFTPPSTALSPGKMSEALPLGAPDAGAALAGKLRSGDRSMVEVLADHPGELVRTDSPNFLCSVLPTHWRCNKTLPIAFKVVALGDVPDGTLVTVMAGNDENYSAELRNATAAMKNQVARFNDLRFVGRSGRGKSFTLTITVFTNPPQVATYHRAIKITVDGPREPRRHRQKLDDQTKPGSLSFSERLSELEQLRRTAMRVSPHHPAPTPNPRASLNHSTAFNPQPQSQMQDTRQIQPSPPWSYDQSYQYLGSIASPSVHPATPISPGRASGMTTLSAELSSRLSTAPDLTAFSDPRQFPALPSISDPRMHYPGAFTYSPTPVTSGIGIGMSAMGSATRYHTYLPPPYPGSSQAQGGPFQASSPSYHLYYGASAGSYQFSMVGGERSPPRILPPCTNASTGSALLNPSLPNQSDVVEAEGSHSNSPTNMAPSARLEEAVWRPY
T1 sequence (Q13951 whole entry): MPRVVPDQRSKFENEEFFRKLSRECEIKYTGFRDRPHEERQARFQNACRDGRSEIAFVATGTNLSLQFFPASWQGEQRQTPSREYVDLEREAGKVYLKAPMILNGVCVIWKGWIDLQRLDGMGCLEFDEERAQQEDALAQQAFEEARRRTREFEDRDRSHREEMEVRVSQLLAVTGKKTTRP

In the case of NCC(=O)Nc1ccc(Cl)cc1C(=O)c1ccc[nH]1 [MLS000766105, 2-amino-N-[4-chloro-2-(1H-pyrrole-2-carbonyl)phenyl]acetamide], the “activity in the original screening” value (RUNX1-CBFβ binding) is reported as “active”, the “numbers of cd41-GFP cells in embryos” value (zebrafish embryos) is reported as “reduced numbers” and the “definitive hematopoiesis in zebrafish embryos” value (“definitive hematopoiesis” for short) (zebrafish embryos) is reported as “significant reduction”. For the same compound, the “definitive hematopoiesis” value (zebrafish embryos; listed as J1) was “reduce definitive hematopoiesis” and the “killing of leukemia cells with CBF fusion genes versus without” value [1] was “preferentially killed”.

For O=C1CN=C(c2ccc[nH]2)c2cc(Cl)ccc2N1 [Ro5-3335, 7-chloro-5-(1H-pyrrol-2-yl)-1,3,-dihydro-1,4-benzodiaepin-2-one], the “numbers of cd41-GFP cells in embryos” value (zebrafish embryos) was “reduced numbers”, the “definitive hematopoiesis” value (zebrafish embryos) was “significant reduction” and the “definitive hematopoiesis” value (zebrafish embryos; listed as J2) was “reduce definitive hematopoiesis”. For the same compound, the “killing of leukemia cells with CBF fusion genes versus without” value [1] was “preferentially killed”, the “cell killing potency for CBF leukemia cell lines relative to leukemia cell lines without CBF fusion genes” value ([1]; ATP content IC50 comparison) was 6-50 fold and the “leukemia burden in mice” value [2] was “significantly reduced”. The “survival of leukemic mice, combination with cytarabine” value [2] was “synergy” and the “leukemia cell burden (c-kit+ cells)” value ([2]; FIG. 9, 10 days after treatments started) was “reduced leukemia cell burden”.

For CNC1=Nc2ccc(Cl)cc2C(c2ccc[nH]2)=NC1 [Ro24-7429, 7-chloro-N-methyl-5-1(1H-pyrrol-2-yl)-3H-1,4-benzodiazepin-2-amine], the “numbers of cd41-GFP cells in embryos” value (zebrafish embryos) was “reduced numbers”, the “definitive hematopoiesis” value (zebrafish embryos) was “significant reduction” and the “definitive hematopoiesis” value (zebrafish embryos; listed as J8) was “reduce definitive hematopoiesis”. For the same compound, the “leukemia burden in mice” value [2] was “significantly reduced”, the “survival of leukemic mice, combination with cytarabine” value [2] was “trend of synergy” and the “toxicological profile relative to Ro5-3335” value [3] was “improved toxicological profile”.

In the case of Nc1ccn([C@@H]2O[C@H](CO)[C@@H](O)[C@@H]2O)c(=O)n1 [cytarabine, reference compound], the “survival of leukemic mice, single agent” value ([2]; second experiment, cytarabine on days 10-15) is reported as “failed to extend survival”.
